From PubChem BioAssay (NCI)
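GI50: concentration for 50% inhibition of growth. Definition used: TGI = concentration required for complete inhibition of growth.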

Key:
Assay in all cases: NCI anticancer screen, dose series, 384-well format
A498 renal = test system: A498 renal
A549 NSCLC = test system: A549 NSCLC
BT-549 breast = test system: BT-549 breast
CCRF-CEM leukemia = test system: CCRF-CEM leukemia
COLO 205 colon = test system: COLO 205 colon
DU-145 prostate = test system: DU-145 prostate
EKVX NSCLC = test system: EKVX NSCLC
HCC-2998 colon = test system: HCC-2998 colon
HCT-116 colon = test system: HCT-116 colon
HCT-15 colon = test system: HCT-15 colon
HL-60(TB) leukemia = test system: HL-60(TB) leukemia
HOP-92 NSCLC = test system: HOP-92 NSCLC
HS 578T breast = test system: HS 578T breast
HT29 colon = test system: HT29 colon
IGROV1 ovarian = test system: IGROV1 ovarian
K-562 leukemia = test system: K-562 leukemia
LOX IMVI melanoma = test system: LOX IMVI melanoma
MALME-3M melanoma = test system: MALME-3M melanoma
MCF7 breast = test system: MCF7 breast
MDA-MB-468 breast = test system: MDA-MB-468 breast
MOLT-4 leukemia = test system: MOLT-4 leukemia
NCI-H23 lung = test system: NCI-H23 lung
NCI-H322M lung = test system: NCI-H322M lung
NCI-H460 NSCLC = test system: NCI-H460 NSCLC
NCI-H522 lung = test system: NCI-H522 lung
NCI/ADR-RES ovarian = test system: NCI/ADR-RES ovarian
OVCAR-3 ovarian = test system: OVCAR-3 ovarian
OVCAR-4 ovarian = test system: OVCAR-4 ovarian
OVCAR-5 ovarian = test system: OVCAR-5 ovarian
OVCAR-8 ovarian = test system: OVCAR-8 ovarian
RPMI-8226 leukemia = test system: RPMI-8226 leukemia
RXF 393 renal = test system: RXF 393 renal
SF-268 CNS = test system: SF-268 CNS
SF-295 CNS = test system: SF-295 CNS
SF-539 CNS = test system: SF-539 CNS
SK-MEL-2 melanoma = test system: SK-MEL-2 melanoma
SK-MEL-28 melanoma = test system: SK-MEL-28 melanoma
SK-MEL-5 melanoma = test system: SK-MEL-5 melanoma
SK-OV-3 ovarian = test system: SK-OV-3 ovarian
SN12C renal = test system: SN12C renal
SNB-19 CNS = test system: SNB-19 CNS
SNB-75 CNS = test system: SNB-75 CNS
SW-620 colon = test system: SW-620 colon
T-47D breast = test system: T-47D breast
TK-10 renal = test system: TK-10 renal
U251 glioblastoma = test system: U251 glioblastoma
UACC-62 melanoma = test system: UACC-62 melanoma

O=C(c1cc(Cc2n[nH]c(=O)c3ccccc23)ccc1F)N1CCN(C(=O)C2CC2)CC1
GI50 (A498 renal): > 100 µM
TGI (A498 renal): > 100 µM
GI50 (A549 NSCLC): 44.9 µM
TGI (A549 NSCLC): > 100 µM
GI50 (BT-549 breast): 17.2 µM
TGI (BT-549 breast): > 75.8 µM
GI50 (CCRF-CEM leukemia): 6.5 µM
TGI (CCRF-CEM leukemia): > 100 µM
GI50 (COLO 205 colon): > 77 µM
TGI (COLO 205 colon): > 100 µM
GI50 (DU-145 prostate): 53.5 µM
TGI (DU-145 prostate): > 100 µM
GI50 (EKVX NSCLC): 97.7 µM
TGI (EKVX NSCLC): > 100 µM
GI50 (HCC-2998 colon): > 29.2 µM
TGI (HCC-2998 colon): > 100 µM
GI50 (HCT-116 colon): 8.27 µM
TGI (HCT-116 colon): > 100 µM
GI50 (HCT-15 colon): > 100 µM
TGI (HCT-15 colon): > 100 µM
GI50 (HL-60(TB) leukemia): 21.2 µM
TGI (HL-60(TB) leukemia): > 100 µM
GI50 (HOP-92 NSCLC): 57.3 µM
TGI (HOP-92 NSCLC): > 100 µM
GI50 (HS 578T breast): 25.9 µM
TGI (HS 578T breast): > 100 µM
GI50 (HT29 colon): > 100 µM
TGI (HT29 colon): > 100 µM
GI50 (IGROV1 ovarian): > 62.7 µM
TGI (IGROV1 ovarian): > 100 µM
GI50 (K-562 leukemia): 33.5 µM
TGI (K-562 leukemia): > 100 µM
GI50 (LOX IMVI melanoma): 23 µM
TGI (LOX IMVI melanoma): > 100 µM
GI50 (MALME-3M melanoma): > 100 µM
TGI (MALME-3M melanoma): > 100 µM
GI50 (MCF7 breast): 28.6 µM
TGI (MCF7 breast): > 100 µM
GI50 (MDA-MB-468 breast): 3.76 µM
TGI (MDA-MB-468 breast): 16.7 µM
GI50 (MOLT-4 leukemia): 1.43 µM
TGI (MOLT-4 leukemia): 3.03 µM
GI50 (NCI-H23 lung): 16.3 µM
TGI (NCI-H23 lung): > 100 µM
GI50 (NCI-H322M lung): > 100 µM
TGI (NCI-H322M lung): > 100 µM
GI50 (NCI-H460 NSCLC): 5.78 µM
TGI (NCI-H460 NSCLC): > 100 µM
GI50 (NCI-H522 lung): 51.7 µM
TGI (NCI-H522 lung): > 100 µM
GI50 (NCI/ADR-RES ovarian): > 100 µM
TGI (NCI/ADR-RES ovarian): > 100 µM
GI50 (OVCAR-3 ovarian): 60.5 µM
TGI (OVCAR-3 ovarian): > 100 µM
GI50 (OVCAR-4 ovarian): > 80.3 µM
TGI (OVCAR-4 ovarian): > 100 µM
GI50 (OVCAR-5 ovarian): > 100 µM
TGI (OVCAR-5 ovarian): > 100 µM
GI50 (OVCAR-8 ovarian): 22 µM
TGI (OVCAR-8 ovarian): > 100 µM
GI50 (RPMI-8226 leukemia): 12.7 µM
TGI (RPMI-8226 leukemia): > 100 µM
GI50 (RXF 393 renal): > 37.6 µM
TGI (RXF 393 renal): > 79.6 µM
GI50 (SF-268 CNS): 24.9 µM
TGI (SF-268 CNS): > 90.3 µM
GI50 (SF-295 CNS): 4.68 µM
TGI (SF-295 CNS): > 37.3 µM
GI50 (SF-539 CNS): 11.8 µM
TGI (SF-539 CNS): > 100 µM
GI50 (SK-MEL-2 melanoma): > 100 µM
TGI (SK-MEL-2 melanoma): > 100 µM
GI50 (SK-MEL-28 melanoma): > 100 µM
TGI (SK-MEL-28 melanoma): > 100 µM
GI50 (SK-MEL-5 melanoma): 35 µM
TGI (SK-MEL-5 melanoma): > 73.1 µM
GI50 (SK-OV-3 ovarian): > 55.5 µM
TGI (SK-OV-3 ovarian): > 100 µM
GI50 (SN12C renal): > 100 µM
TGI (SN12C renal): > 100 µM
GI50 (SNB-19 CNS): 99.2 µM
TGI (SNB-19 CNS): > 100 µM
GI50 (SNB-75 CNS): 22.5 µM
TGI (SNB-75 CNS): > 95.9 µM
GI50 (SW-620 colon): > 35 µM
TGI (SW-620 colon): > 100 µM
GI50 (T-47D breast): 34.8 µM
TGI (T-47D breast): > 100 µM
GI50 (TK-10 renal): > 100 µM
TGI (TK-10 renal): > 100 µM
GI50 (U251 glioblastoma): 27.3 µM
TGI (U251 glioblastoma): > 100 µM
GI50 (UACC-62 melanoma): > 95.7 µM
TGI (UACC-62 melanoma): > 100 µM
